Data reported in patent US20180305332A1, “Bispiperidinyl Derivatives as Liver X Receptor Beta Agonists, Compositions, and Their Use” (Merck Sharp & Dohme Corp., priority 2015, published 2018).
pEC50: −log10 of the molar value.

Key:
[1] = target: T1, GST tagged LXRbeta LBD (ligand binding domain) (Homo sapiens, UniProt P55055); assay: LanthaScreen TR-FRET Liver X Receptor Coactivator Assay, LXR beta-LBD; type: biochemical; settings: relative to reference T0901317; for pEC50: Inflection Point (potency), co-activator recruitment, read-out: LXR beta IP; for Emax: activity at max dose (efficacy), read-out: LXR beta act @ max dose (%)
T1 construct: purchased Invitrogen pv4658.pps
T1 sequence (P55055 222-460 limits assumed): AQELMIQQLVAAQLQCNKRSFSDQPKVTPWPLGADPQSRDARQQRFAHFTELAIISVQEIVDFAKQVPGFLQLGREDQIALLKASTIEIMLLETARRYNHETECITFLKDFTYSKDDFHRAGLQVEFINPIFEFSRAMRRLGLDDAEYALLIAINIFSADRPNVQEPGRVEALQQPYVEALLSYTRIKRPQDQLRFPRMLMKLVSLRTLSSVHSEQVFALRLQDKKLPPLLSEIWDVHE
Method in brief: (§1)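 Values are inflection points (potency) and Emax (efficacy) expressed against reference agonist T0901317. Coactivator recruitment is measured by TR-FRET between terbium anti-GST antibody on the LBD and a fluorescein-labelled peptide, following room-temperature incubation.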

[2] = target: T2, GST tagged LXRalpha LBD (ligand binding domain) (Homo sapiens, UniProt Q13133); assay: LanthaScreen TR-FRET Liver X Receptor Coactivator Assay, LXR alpha-LBD; type: biochemical; settings: relative to reference T0901317; for pEC50 / LXR alpha IP (nM): Inflection Point (potency), co-activator recruitment; for pEC50: read-out: LXR alpha IP; for Emax: activity at max dose (efficacy), read-out: LXR alpha act @ max dose (%)
T2 construct: purchased Invitrogen pv4655
T2 sequence (Q13133 209-447 limits assumed): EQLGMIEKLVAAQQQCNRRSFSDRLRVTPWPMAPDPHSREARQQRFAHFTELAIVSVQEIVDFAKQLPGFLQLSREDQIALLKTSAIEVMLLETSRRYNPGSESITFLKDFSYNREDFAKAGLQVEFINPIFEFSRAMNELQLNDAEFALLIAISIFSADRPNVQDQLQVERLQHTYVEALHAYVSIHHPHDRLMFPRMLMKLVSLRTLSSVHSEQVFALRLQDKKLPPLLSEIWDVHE
Method in brief: as §1

SMILES	pEC50 [1]	Emax [1] [%]	pEC50 [2]	Emax [2] [%]	LXR alpha IP (nM) [2]
O=C(c1ccc(N2CCC(C3CCN(C(=O)[C@](O)(c4ccccc4)C(F)(F)F)CC3)CC2)cc1Cl)N1CC(c2cccnc2)C1 [Example E-43, (2R)-3-(1′-{3-chloro-4-[(3-pyridin-3-ylazetidin-1-yl)carbonyl]phenyl}-4,4′-bipiperidin-1-yl)-1,1,1-trifluoro-3-oxo-2-phenylpropan-2-ol]	6.45	50	5.52	24	–
CN(C)C(=O)c1ccc(N2CCC(C3CCN(S(=O)(=O)c4c(Cl)cccc4C(F)(F)F)CC3)CC2)cc1Cl [Example A-105, 2-chloro-4-(1′-{[2-chloro-6-(trifluoromethyl)phenyl]sulfonyl}-4,4′-bipiperidin-1-yl)-N,N-dimethylbenzamide]	7.26	118	5.96	44	–
Cc1cccc(C2(C(=O)N3CCC(C4CCN(c5ccc(C(=O)N(C)C)c(Cl)c5)CC4)CC3)CCC2)c1 [Example A-19, 2-chloro-N,N-dimethyl-4-(1′-{[1-(3-methylphenyl)cyclobutyl]carbonyl}-4,4′-bipiperidin-1-yl)benzamide]	6.91	94	5.76	17	–
CN(C)C(=O)c1ccc(N2CCC(C3CCN(C(=O)C(C)(C)c4ccccc4)CC3)CC2)cc1Cl [Example A-12, 2-chloro-N,N-dimethyl-4-[1′-(2-methyl-2-phenylpropanoyl)-4,4′-bipiperidin-1-yl]benzamide]	7.85	114	5.61	47	–
CC(C)(C)OC(=O)N1CCC(C2CCN(c3ccc(C(C)(C)O)c(Cl)c3)CC2)CC1 [Example E-69, tert-butyl 1′-[3-chloro-4-(1-hydroxy-1-methylethyl)phenyl]-4,4′-bipiperidine-1-carboxylate]	6.49	69	6.00	56	–
CNC(=O)c1ccc(N2CCC(C3CCN(C(=O)C(O)(C(C)C)C(F)(F)F)CC3)CC2)cc1Cl (stereo not shown) [Example E-5, 2-chloro-4-{1′-[2-hydroxy-3-methyl-2-(trifluoromethyl)butanoyl]-4,4′-bipiperidin-1-yl}-N-methylbenzamide]	6.95	123	5.97	56	–
CC(C)(C(=O)N1CCC(C2CCN(c3cccc(S(C)(=O)=O)c3)CC2)CC1)c1ccccc1 [Example D-8, 1-(2-methyl-2-phenylpropanoyl)-1′-[3-(methylsulfonyl)phenyl]-4,4′-bipiperidine]	6.73	134	5.60	64	–
CC(C)(C)OC(=O)NC1CN(C(=O)c2ccc(N3CCC(C4CCN(C(=O)[C@](O)(c5ccccc5)C(F)(F)C(F)(F)F)CC4)CC3)cc2Cl)C1 [Example E-65, tert-butyl {1-[(2-chloro-4-{1′-[(2R)-3,3,4,4,4-pentafluoro-2-hydroxy-2-phenylbutanoyl]-4,4′-bipiperidin-1-yl}phenyl)carbonyl]azetidin-3-yl}carbamate]	7.77	137	6.20	64	–
CN(C)C(=O)c1ccc(N2CCC(C3CCN(S(=O)(=O)c4ccccc4)CC3)CC2)cc1Cl [Example A-99, 2-chloro-N,N-dimethyl-4-[1′-(phenylsulfonyl)-4,4′-bipiperidin-1-yl]benzamide]	6.30	54	–	0	NO IP
CC(C)C(O)(C(=O)N1CCC(C2CCN(c3ccc(C(=O)N(C)C)c(Cl)n3)CC2)CC1)C(C)C [Example B-2, 2-chloro-6-{1′-[2-hydroxy-3-methyl-2-(1-methylethyl)butanoyl]-4,4′-bipiperidin-1-yl}-N,N-dimethylpyridine-3-carboxamide]	7.24	123	5.77	47	–
CC(C)N(C)C(=O)c1ccc(N2CCC(C3CCN(C(=O)C(O)(C(C)C)C(F)(F)F)CC3)CC2)cc1Cl (stereo not shown) [Example E-6, 2-chloro-4-{1′-[2-hydroxy-3-methyl-2-(trifluoromethyl)butanoyl]-4,4′-bipiperidin-1-yl}-N-methyl-N-(1-methylethyl)benzamide]	6.95	101	6.12	53	–
O=C(c1ccc(N2CCC(C3CCN(C(=O)[C@](O)(c4ccccc4)C(F)(F)F)CC3)CC2)cc1Cl)N1CCCC1 [Example E-20]	6.71	78	–	25	NO IP
COc1ccc(C2(C(=O)N3CCC(C4CCN(c5ccc(C(=O)N(C)C)c(Cl)c5)CC4)CC3)CCCC2)cc1 [Example A-46, 2-chloro-4-(1′-{[1-(4-methoxyphenyl)cyclopentyl]carbonyl}-4,4′-bipiperidin-1-yl)-N,N-dimethylbenzamide]	6.73	34	–	0	NO IP
CN(C)C(=O)c1ccc(N2CCC(C3CCN(C(=O)C(O)(c4cccc(Cl)c4)C(F)(F)F)CC3)CC2)cc1Cl (stereo not shown) [Example A-50, 2-chloro-4-{1′-[2-(3-chlorophenyl)-3,3,3-trifluoro-2-hydroxypropanoyl]-4,4′-bipiperidin-1-yl}-N,N-dimethylbenzamide]	7.03	99	6.00	20	–
CN(C)C(=O)c1ccc(N2CCC(C3CCN(C(=O)C4(c5ccccc5Cl)CCCC4)CC3)CC2)cc1Cl [Example A-94, 2-chloro-4-(1′-{[1-(2-chlorophenyl)cyclopentyl]carbonyl}-4,4′-bipiperidin-1-yl)-N,N-dimethylbenzamide]	7.89	124	6.60	67	–
Cc1ccc(F)c(C(=O)N2CCC(C3CCN(c4ccc(C(=O)N(C)C)c(Cl)c4)CC3)CC2)c1F [Example A-38, 2-chloro-4-{1′-[(2,6-difluoro-3-methylphenyl)carbonyl]-4,4′-bipiperidin-1-yl}-N,N-dimethylbenzamide]	6.79	85	5.46	22	–
COc1ccc(C2(C(=O)N3CCC(C4CCN(c5ccc(C(=O)N(C)C)c(Cl)c5)CC4)CC3)CC2)cc1 [Example A-48, 2-chloro-4-(1′-{[1-(4-methoxyphenyl)cyclopropyl]carbonyl}-4,4′-bipiperidin-1-yl)-N,N-dimethylbenzamide]	6.54	69	–	0	NO IP
CC(C)C(O)(C(=O)N1CCC(C2CCN(c3ccc(C(=O)N(C)C)c(Cl)n3)CC2)CC1)C(F)(F)F (stereo in doubt) [Example B-6, 2-chloro-6-{1′-[(2S)-2-hydroxy-3-methyl-2-(trifluoromethyl)butanoyl]-4,4′-bipiperidin-1-yl}-N,N-dimethylpyridine-3-carboxamide]	7.42	108	5.78	46	–
CNC(=O)c1ccc(N2CCC(C3CCN(C(=O)[C@](O)(c4ccccc4)C(F)(F)F)CC3)CC2)cc1Cl [Example E-62, 2-chloro-N-methyl-4-{1′-[(2R)-3,3,3-trifluoro-2-hydroxy-2-phenylpropanoyl]-4,4′-bipiperidin-1-yl}benzamide]	6.47	99	5.69	33	–
O=C(c1ccc(N2CCC(C3CCN(C(=O)[C@](O)(c4ccccc4)C(F)(F)F)CC3)CC2)cc1Cl)N(CCF)CCF [Example E-67, 2-chloro-N,N-bis(2-fluoroethyl)-4-{1′-[(2R)-3,3,3-trifluoro-2-hydroxy-2-phenylpropanoyl]-4,4′-bipiperidin-1-yl}benzamide]	6.77	106	5.68	30	–
CN(C)C(=O)c1ccc(N2CCC(C3CCN(C(=O)C(O)(c4ccccc4F)C(F)(F)F)CC3)CC2)cc1Cl (stereo not shown) [Example A-96, 2-chloro-N,N-dimethyl-4-{1′-[3,3,3-trifluoro-2-(2-fluorophenyl)-2-hydroxypropanoyl]-4,4′-bipiperidin-1-yl}benzamide]	6.88	107	5.63	29	–
COC(=O)[C@@H]1CCCN1C(=O)c1ccc(N2CCC(C3CCN(C(=O)[C@](O)(c4ccccc4)C(F)(F)F)CC3)CC2)cc1Cl [Example E-22, methyl 1-[(2-chloro-4-{1′-[(2R)-3,3,3-trifluoro-2-hydroxy-2-phenylpropanoyl]-4,4′-bipiperidin-1-yl}phenyl)carbonyl]prolinate]	6.36	81	5.78	18	–
